Values quoted from earlier work in US20120076863A1, “NANOPARTICULATE STABILIZED ANTI-HYPERTENSIVE COMPOSITIONS” (Elan Pharma International Ltd., priority 2005, published 2012).
Structures can show the parent of a compound that is named as a salt.

How the values were obtained:
[1] = active metabolite of temocapril

Row | Compound | solubility in water | excretion route [1]
1 | CCOC(=O)[C@H](CCc1ccccc1)N[C@H]1CS[C@H](c2cccs2)CN(CC(=O)O)C1=O [Temocapril hydrochloride, α-{(2S,6R)-6-[(1S)-1-ethoxy-carbonyl-3-phenyl-propyl]amino-5-oxo-2-(2-thienyl)perhydro-1,4-thiazepin-4yl}acetic acid hydrochloride] | only slightly soluble | –
2 | O=C(O)CN1C[C@@H](c2cccs2)SC[C@H](N[C@@H](CCc2ccccc2)C(=O)O)C1=O [temocaprilat] | – | excreted predominantly in bile
